Reference: patent US7723265B2, “Pesticide compositions containing oxalic acid” (Monsanto Technology, priority 2000, dated 2010)
Like-named read-outs stand apart in the source and are kept apart here.

Key:
Assay type in all cases: in vivo
[1] = system: velvetleaf (Abutilon theophrasti, ABUTH); assay: Greenhouse test of herbicidal effectiveness (visual percent control) on velvetleaf
Text: (§1) The following procedure was used for testing compositions of the Examples to determine herbicidal effectiveness, except where otherwise indicated.
(§2) Seeds of the plant species indicated were planted in 85 mm square pots in a soil mix which was previously steam sterilized and prefertilized with a 14-14-14 NPK slow release fertilizer at a rate of 3.6 kg/m3. The pots were placed in a greenhouse with sub-irrigation. About one week after emergence, seedlings were thinned as needed, including removal of any unhealthy or abnormal plants, to create a uniform series of test pots.
The plants were maintained for the duration of the test in the greenhouse where they received a minimum of 14 hours of light per day. […] Exposure temperatures were not precisely controlled but averaged about 27° C. during the day and about 18° C. during the night. Plants were sub-irrigated throughout the test to ensure adequate soil moisture levels.
(§3) Pots were assigned to different treatments in a randomized experimental design with 6 replications. A set of pots was left untreated as a reference against which effects of the treatments could later be evaluated.
(§4) Application of glyphosate compositions was made by spraying with a track sprayer fitted with a 9501E nozzle calibrated to deliver a spray volume of 93 liters per hectare (l/ha) at a pressure of 166 kilopascals (kPa). After treatment, pots were returned to the greenhouse until ready for evaluation.
Treatments were made using dilute aqueous compositions. These could be prepared as spray compositions directly from their ingredients, or by dilution with water of preformulated concentrate compositions.
For evaluation of herbicidal effectiveness, all plants in the test were examined by a single practiced technician, who recorded percent control, a visual measurement of the effectiveness of each treatment by comparison with untreated plants. […] The reported % control values represent the average for all replicates of each treatment.

[2] = system: Japanese millet (Echinochloa crus-galli var. frumentae, ECHCF); assay: Herbicidal effectiveness (percent control) on Japanese millet; conditions: comparison as worded in the text of the example
Text: as §1
as §2, with “pots. […]” for “pots.”
as §3
as §4, with “evaluation. […]” for “evaluation.”
(§5) For evaluation of herbicidal effectiveness, all plants in the test were examined by a single practiced technician, who recorded percent control, a visual measurement of the effectiveness of each treatment by comparison with untreated plants. […]

sicklepod (CASOB) = assay: Herbicidal effectiveness (percent control) on sicklepod; conditions: comparison as worded in the text of the example
morningglory (IPOSS) = assay: Herbicidal effectiveness (percent control) on morningglory; conditions: comparison as worded in the text of the example
Text: as §1
as §2, with “pots. […]” for “pots.”
as §3
as §4, with “evaluation. […]” for “evaluation.”
as §5

Prickly sida (SIDSP) = assay: Herbicidal effectiveness (percent control) on prickly sida; conditions: comparison as worded in the text of the example
Text: as §1
as §2, with “pots. […]” for “pots.”
as §3
as §4, with “evaluation. […]” for “evaluation.”
as §5

Indian Mustard (BRSJU) = assay: Herbicidal effectiveness (percent control) on Indian mustard; conditions: comparison as worded in the text of the example
Text: as §1
as §2, with “pots. […]” for “pots.”
as §3
as §4, with “evaluation. […]” for “evaluation.”
as §5

hemp sesbania (SEBEX) = assay: Herbicidal effectiveness (percent control) on hemp sesbania; conditions: comparison as worded in the text of the example
Text: as §1
as §2, with “pots. […]” for “pots.”
as §3
as §4, with “evaluation. […]” for “evaluation.”
as §5

[3] = system: Yellow nutsedge (Cyperus esculentus, CYPES); assay: Herbicidal effectiveness (percent control) on yellow nutsedge; conditions: 0.03% oxalic acid in potassium glyphosate tank mixes
velvetleaf (ABUTH) = assay: Rainfastness of Roundup UltraMax with oxalic acid on velvetleaf; conditions: glyphosate a.e.:oxalic acid 15:1; 0.25 inches of rain one or two hours after treatment, or no rain
Procedure: The rainfastedness of a Roundup UltraMax and oxalic acid, at a weight ratio of glyphosate a.e. to oxalic acid of 15:1, was evaluated. The Roundup UltraMax formulations were applied at rates of 300 and 500 g a.e./ha and evaluated with no rain, 0.25 inches of rain at one hour after treatment, and 0.25 inches of rain at two hours after treatment.

[4] = comparison as worded in the text of the example

With `CC(=O)O` [Acetic acid] the “herbicidal efficacy on velvetleaf (ABUTH), result in words” value (from here on “herbicidal efficacy on velvetleaf”) [1, 4] was “did not significantly effect the efficacy”.
With `C[N+](C)(C)Cc1ccccc1.[Cl-]` [Benzyltrimethylammonium chloride] the “herbicidal efficacy on velvetleaf” value [1, 4] was “better efficacy than did the commercial Roundup UltraMax standard”.
`C[N+](C)(C)Cc1ccccc1.[OH-]` [Benzyltrimethylammonium hydroxide] was tested, and the “herbicidal efficacy on velvetleaf” value [1, 4] was “better efficacy than did the commercial Roundup UltraMax standard”.
In the case of `O=C(O)CC(O)(CC(=O)O)C(=O)O` [Citric acid], the “herbicidal efficacy on velvetleaf” value [1, 4] is reported as “did not significantly effect the efficacy” and the “herbicidal efficacy on velvetleaf” value ([1]; comparison as worded in the text of the example, listed as citric acid) is reported as “did not have significant impact on the efficacy”.
`O=C([O-])C(=O)[O-].[K+].[K+]` [Dipotassium oxalate, dipotassium oxalate] was tested, and the “herbicidal efficacy on velvetleaf” value [1, 4] was “enhanced efficacy regardless of the glyphosate salt” and the “herbicidal efficacy on ECHCF (barnyardgrass), result in words” value [2] was “relatively ineffective for enhancing efficacy against barnyardgrass”.
With `O=C(O)[C@H](O)[C@@H](O)[C@H](O)[C@H](O)CO` [Gluconic acid] the “herbicidal efficacy on velvetleaf” value [1, 4] was “did not significantly effect the efficacy”.
With `CC(O)C(=O)O` (centres unmarked) [Lactic acid] the “herbicidal efficacy on velvetleaf” value [1, 4] was “did not significantly effect the efficacy”.
`O=C(O)C(=O)O` [Oxalic acid] was tested, and the “herbicidal efficacy on velvetleaf” value [1] was “further increased efficacy”, the “herbicidal efficacy on ECHCF (barnyardgrass), result in words” value [2] was “did not significantly enhance glyphosate efficacy on barnyardgrass” and the “herbicidal efficacy on sicklepod (CASOB), result in words” value (sicklepod (CASOB)) was “did not give statistically significant efficacy enhancement on sicklepod”. For the same molecule, the “herbicidal efficacy on morningglory (IPOSS), result in words” value (morningglory (IPOSS)) was “equally effective in enhancing Roundup UltraMax efficacy on morningglory”, the “herbicidal efficacy on prickly sida (SIDSP), result in words” value (Prickly sida (SIDSP)) was “gave efficacy enhancement” and the “herbicidal efficacy on Indian mustard (BRSJU), result in words” value (Indian Mustard (BRSJU)) was “did not provide significant efficacy enhancement on Indian mustard”. For the same molecule, the “herbicidal efficacy on hemp sesbania (SEBEX), result in words” value (hemp sesbania (SEBEX)) was “equal with the standards regardless of the presence of oxalic acid”, the “herbicidal efficacy on yellow nutsedge (CYPES), result in words” value [3] was “did not provide synergy on yellow nutsedge” and the “rainfastness on velvetleaf, result in words” value (velvetleaf (ABUTH)) was “did not provide any rainfastness properties for Roundup UltraMax on velvetleaf”.
For `O=P(O)(O)O` [Phosphoric acid], the “herbicidal efficacy on velvetleaf” value [1, 4] was “did not significantly effect the efficacy” and the “herbicidal efficacy on velvetleaf” value ([1]; comparison as worded in the text of the example, listed as phosphoric acid) was “did not have significant impact on the efficacy”.
In the case of `NC(=O)CCC(=O)O` [Succinamic acid], the “herbicidal efficacy on velvetleaf” value [1, 4] is reported as “antagonistic effect on glyphosate efficacy”.
For `O=C(O)CCC(=O)O` [Succinic acid], the “herbicidal efficacy on velvetleaf” value [1, 4] was “did not significantly effect the efficacy”.
`O=C(O)CCCCC(=O)O` [adipic acid, Adipic acid] was tested, and the “herbicidal efficacy on velvetleaf” value [1, 4] was “some increased efficacy”.
